The record followed here is ChEMBL document CHEMBL3045574, “Safening Effects of 1, 8-Naphthalic Anhydride in Corn Plants Treated with Bensulfuron-methyl and Imazaquin” (J Pestic Sci, 1997).

Assay [1] concerns Zea mays. Nature of the assay: Increase of acetolactate synthase activity in Zea mays (maize) at 0.2 % w/w after 15 min relative to control. In kind it is functional.
Assay [2] concerns Zea mays. Description: Decrease of imazaquin-induced increase of pyruvate content in Zea mays (maize) assessed per gram of fresh weight at 0.2 % w/w after 10 days. It counts as functional, organism-based.
The subject of assay [3] is Zea mays. Nature of the assay: Increase of acetolactate synthase activity in Zea mays (maize) shoot. In kind it is functional.
Assay [4] has as its system Zea mays. Nature of the assay: Protection against bensulfuron-methyl-induced growth inhibition of Zea mays (maize) assessed as safening index at 0.05 to 0.4 % w/w treated 1 to 14 days before bensulfuron-methyl challenge measured after 3 weeks relative to untreated control. It counts as functional.
For assay [5], the system named is Zea mays. Description: Protection against imazaquin-induced growth inhibition of Zea mays (maize) assessed as safening index at 0.05 to 0.4 % w/w treated 1 to 14 days before imazaquin challenge measured after 3 weeks relative to untreated control. In kind it is functional.
Assay [6] has as its system Zea mays. Description: Decrease of bensulfuron-methyl-induced increase of pyruvate content in Zea mays (maize) assessed per gram of fresh weight at 0.2 % w/w after 10 days. It counts as functional, organism-based.
The subject of assay [7] is Zea mays. Description: Effect on pyruvate content in Zea mays (maize) embryos assessed per gram of fresh weight at 0.2 % w/w after 10 days (reference value: 8.5 umol). It counts as functional.
Assay [8] concerns Zea mays. Nature of the assay: Effect on pyruvate content in Zea mays (maize) shoot assessed per gram of fresh weight at 0.2 % w/w after 10 days (reference value: 18.4 umol). It counts as functional.
The subject of assay [9] is Zea mays. Nature of the assay: Effect on pyruvate content in Zea mays (maize) endosperms assessed per gram of fresh weight at 0.2 % w/w after 10 days (reference value: 11.4 umol). It counts as functional.
The subject of assay [10] is Zea mays. Description: Increase of acetolactate synthase activity in Zea mays (maize) root. In kind it is functional.
The subject of assay [11] is Zea mays. Nature of the assay: Effect on pyruvate content in Zea mays (maize) roots assessed per gram of fresh weight at 0.2 % w/w after 10 days (reference value: 13.3 umol). It counts as functional.
The subject of assay [12] is Zea mays. Nature of the assay: Increase of acetyl CoA carboxylase activity in Zea mays (maize) at 0.2 % w/w after 15 min relative to control. It counts as functional.
In another assay the target is T1, Acetolactate synthase (Zea mays, UniProt Q41768+Q41769).
T1 sequence (Q41768 whole entry): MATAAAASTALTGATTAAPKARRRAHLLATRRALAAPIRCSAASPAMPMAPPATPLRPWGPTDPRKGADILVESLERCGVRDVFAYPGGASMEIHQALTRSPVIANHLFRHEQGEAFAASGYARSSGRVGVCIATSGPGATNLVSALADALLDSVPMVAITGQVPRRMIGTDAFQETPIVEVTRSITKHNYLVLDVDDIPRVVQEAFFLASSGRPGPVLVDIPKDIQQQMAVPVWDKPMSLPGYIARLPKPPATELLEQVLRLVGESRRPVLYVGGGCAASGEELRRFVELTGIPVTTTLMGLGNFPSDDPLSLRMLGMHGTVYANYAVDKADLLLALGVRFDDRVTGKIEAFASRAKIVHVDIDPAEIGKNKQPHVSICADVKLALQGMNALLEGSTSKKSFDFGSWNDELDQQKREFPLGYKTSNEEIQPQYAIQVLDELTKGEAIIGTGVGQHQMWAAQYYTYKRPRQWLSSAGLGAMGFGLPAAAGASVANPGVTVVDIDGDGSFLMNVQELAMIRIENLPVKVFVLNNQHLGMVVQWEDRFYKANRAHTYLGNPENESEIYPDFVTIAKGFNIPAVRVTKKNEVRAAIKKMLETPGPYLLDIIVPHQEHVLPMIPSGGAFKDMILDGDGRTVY
T1 sequence (Q41769 whole entry): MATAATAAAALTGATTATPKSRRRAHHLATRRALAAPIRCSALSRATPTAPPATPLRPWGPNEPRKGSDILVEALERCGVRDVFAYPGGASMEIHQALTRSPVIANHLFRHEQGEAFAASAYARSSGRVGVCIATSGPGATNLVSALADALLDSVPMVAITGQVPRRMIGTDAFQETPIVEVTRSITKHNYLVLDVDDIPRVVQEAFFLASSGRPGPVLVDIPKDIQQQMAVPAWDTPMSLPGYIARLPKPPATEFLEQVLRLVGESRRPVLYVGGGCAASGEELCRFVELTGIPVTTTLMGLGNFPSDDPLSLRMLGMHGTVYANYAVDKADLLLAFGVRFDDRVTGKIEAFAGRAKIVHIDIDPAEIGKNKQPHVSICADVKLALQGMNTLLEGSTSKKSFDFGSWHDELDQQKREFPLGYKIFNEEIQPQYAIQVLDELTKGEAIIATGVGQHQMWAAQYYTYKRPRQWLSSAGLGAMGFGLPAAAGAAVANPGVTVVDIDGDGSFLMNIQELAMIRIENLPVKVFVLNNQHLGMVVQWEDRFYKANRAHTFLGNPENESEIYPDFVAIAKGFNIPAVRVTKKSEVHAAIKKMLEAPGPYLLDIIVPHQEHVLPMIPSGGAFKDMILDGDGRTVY
Description: Inhibition of Zea mays (maize) acetolactate synthase. In kind it is protein assay.

Active and inactive are the calls of the source. The rule behind the calls is not given here.

As for `O=C1OC(=O)c2cccc3cccc1c23` [1,8-NAPHTHALIC ANHYDRIDE], the Activity in the assay on Zea mays [1] came out at 31.9%; in the assay on Zea mays [3], 24%; with Zea mays [7] it was 8 µmol; in the assay on Zea mays [8], 16.2 µmol; with Zea mays [9] it was 11.2 µmol; with Zea mays [10], 30%. Also, the Activity in the assay with Zea mays [11] was found to be 13 µmol; in the assay with Zea mays [12] it was 216%. Moreover, the result with Zea mays [2] and in the assay with Zea mays [6] was Active. For the same compound, the Ratio in the assay with Zea mays [4] is listed as 303; in the assay with Zea mays [5], 5.1.
Regarding `COC(=O)c1ccccc1CS(=O)(=O)NC(=O)Nc1nc(OC)cc(OC)n1` [BENSULFURON METHYL], the I50 at Acetolactate synthase is 0.2 µM.
Same read-out and setting: next, `CC(C)C1(C)N=C(c2nc3ccccc3cc2C(=O)O)NC1=O` (centres undefined) [IMAZAQUIN]: 11.8 µM.
